Measurements taken from patent publication US20220211783A1, “GMCI AND DDRI COMBINATION THERAPY FOR TREATING CANCER” (Candel Therapeutics, Inc., priority 2019, published 2022).
pEC50: −log10 of the molar value.

Columns and labels:
[1] = tested on: lung cell line e.g., A549, A427, H2030; assay: Cell viability assay (vital dye such as Presto Blue, fluorescence) of GMCI, AZD1775 and their combination; type: cell-based
[2] = tested on: lung cancer cells; assay: Double-stranded DNA breaks by H2AX-Ser139 staining, confocal microscopy; type: cell-based; details: 6 hours after addition of AZD1775 (IC50 concentration) and/or GCV

C=CCn1c(=O)c2cnc(Nc3ccc(N4CCN(C)CC4)cc3)nc2n1-c1cccc(C(C)(C)O)n1 [AZD1775]
cell viability (fluorescence normalized to samples that received no treatment) ([1]; Day 4, AZD1775 at its IC50 concentration or half of its IC50 concentration, GMCI = AdV-tk 100 MOI + ganciclovir 5 μg/ml): cytotoxic activity
pEC50 ([1]; stated as the concentration used in the lung cell line, half the IC50 given as 40 nM, read-out: EC50 concentration of the drug): 7.10
Double-stranded DNA breaks [2]: occur
H2AX(Ser139) staining ([2]; versus untreated cells): large increase in H2AX staining
